A melting point compilation (Tetko et al.; mined from patent text by program, amines drawn as free bases though some values may be those of a salt)

Row | SMILES | melting point
1 | COc1cc(Nc2c(C#N)cnc3cc4cc(OC)c(OCCN5CCOCC5)cc4cc23)c(Cl)cc1C | 240 to 241 °C
2 | CC(C)(C)c1ccc(C(O)CCCN2CCC(OC(c3ccccc3)c3ccccc3)CC2)cc1 (stereo not given) | 129 to 131 °C
3 | CNS(=O)(=O)Cc1ccc2[nH]cc(CCN)c2c1 | 179 to 181 °C
4 | Cn1c(CC(=O)O)ccc1C(=O)c1ccccc1 | 144 to 145 °C
5 | CN(c1ccccc1)c1nc(N(C)c2ccccc2)c2sccc2n1 | 120 to 122 °C
6 | COc1cccc(CC(=O)O)c1OCc1cc(OC(C)C)nn1Cc1ccc(Cl)cc1Cl | 127 to 128 °C
7 | Cc1ccccc1C(=O)Nc1ccc2oc3c(c2c1)CCCC3 | 209 to 210 °C
8 | CN(C)C(=O)c1ccc(N)cc1S(=O)(=O)NC(C)(C)C | 205 to 208 °C
9 | c1ccc(COc2ccc(Nc3ncnc4ncccc34)cc2)cc1 | 235 to 237 °C
10 | CC(C(=O)Oc1cc(=O)n(-c2ccccc2)c2ncccc12)c1ccccc1 (stereo not given) | 166 to 168 °C
11 | COC(=O)C(=O)Nc1cccc2c1C(=O)N(C1CCC(=O)NC1=O)C2=O (stereo not given) | 247 to 249 °C
12 | CCCn1nc2c(N)nc3ncccc3c2c1CC(C)(C)C(N)=O | 254 to 257 °C
13 | CC1(C)CC(=O)C2C3CCCCC3C2(C)C1 (stereo not given) | 76.6 to 77.4 °C
14 | COCN1NC(=O)N(C)C1c1ccccc1-c1ccc(CBr)cc1 (stereo not given) | 137 to 138 °C
15 | CCCCCC(=N)NC(=S)Nc1ccc(Cl)cc1 | 100 to 102 °C
16 | c1ccc(-c2csc3ncnc(NCc4ccco4)c23)cc1 | 77 to 79 °C
17 | CCN(CC)C(=O)Cc1c(-c2ccc(C)cc2)nc2c(C)cc(C)nn12 | 155 to 158 °C
18 | CCOC(=O)C(C)(C#N)Cc1cc([N+](=O)[O-])ccc1Cl (stereo not given) | 72 to 74 °C
19 | CC(C)c1cc(-c2ccc(F)c3ccccc23)nc(NS(C)(=O)=O)n1 | 276 to 277 °C
20 | Fc1ccc2nc(CBr)ccc2c1 | 90 to 92 °C
21 | Cc1c(NC(=O)c2ccc(OC[C@@H]3CCCO3)cc2F)ccc2cc(CNCC(C)(C)O)cnc12 | 167 to 168 °C
22 | Cc1ccc2c(n1)C(=O)C(N)=C(Cl)C2=O | 270 °C
23 | O=C1C=C(OCCCCCCI)c2ccccc2C1=O | 85 to 87 °C
24 | CC1Oc2c(cc(Cl)cc2C(=O)O)NC1=O (stereo not given) | 319 to 320 °C
25 | O=c1c(Br)c[nH]c2c([N+](=O)[O-])cccc12 | 279 to 282 °C

Row | SMILES | melting point
26 | CC(C)c1[nH]nc2c1C(=O)c1c(NC(=O)CN3CCC(C(N)=O)CC3)cccc1-2 | 224 to 225 °C
27 | O=C(NCCCCCOc1cc(CN2CCCCC2)ccn1)c1cn[nH]c1 | 105 to 106 °C
28 | Cc1noc(NC(=O)N2CCC(c3nc(-c4ccc(F)cc4)cs3)CC2)c1C | 170 to 171 °C
29 | COc1cc(F)c(C2CNCc3ccsc32)cc1OC (stereo not given) | 108 to 111 °C
30 | CCOCCCC1(O)c2ccccc2C=Cc2ccc(I)cc21 (stereo not given) | 95 to 105 °C
31 | CN1NC(Oc2cc(F)ccc2[N+](=O)[O-])=CC1C(F)(F)F (stereo not given) | 68 to 70 °C
32 | CC(C)(C)c1cc(C(=O)Nc2cccc(C(=O)O)c2)cc(C(C)(C)C)c1O | 279 to 280 °C
33 | CS(=O)(=O)c1cccc(NC(=O)c2cnn3c(C(F)(F)F)cc(-c4ccc(OC(F)(F)F)cc4)nc23)c1 | 245 °C
34 | Cc1ccc2cc(NC(=O)c3cccc(CCc4cc(Nc5ccccc5)n[nH]4)c3)ccc2n1 | 98 to 102 °C
35 | O=c1[nH]c2ccccc2n1CCCCCCN1CCN(C(c2ccccc2)c2ccccc2)CC1 | 190 °C
36 | CCCCCCNC(=O)[C@@H]1CCC(=O)N1 | 95 °C
37 | O=CC(=Cc1ccccc1Br)C(C=O)=Cc1ccccc1Br | 194 to 195 °C
38 | CN(CC(=O)O)S(=O)(=O)c1ccc(Cl)cc1 | 180 to 182 °C
39 | O=C1NC(=S)NC(=O)C1=Cc1cc(Br)cs1 | 230 °C
40 | CCOC(=O)c1c(C)nn(C)c1CCl | 81 to 83 °C
41 | CC(C)(C)CC(C)(C)c1cc(-n2nc3ccc(-c4cccnc4)cc3n2)c(O)c(C(C)(C)c2ccccc2)c1 | 126 to 128 °C
42 | CCOCc1nc(C(C)(C)O)c(C(=O)OCc2oc(=O)oc2C)n1Cc1ccc(-c2ccccc2-c2nnn[nH]2)cc1 | 166 to 168 °C
43 | CC(C(=O)NCC1CCC1)(c1ccccc1)c1ccccc1 | 79 °C
44 | Cc1ccc(C)n1C(=O)c1cc2cc(Br)ccc2o1 | 115 to 116 °C
45 | CC1=Nc2ccccc2CC(c2cccs2)N1C (stereo not given) | 106 to 108 °C
46 | CC(C)(C)C(=O)CC(Sc1ccccc1)c1ccc(Cl)cc1Cl (stereo not given) | 79 to 80 °C
47 | Cc1ccc2c(c1)C1CN(CCCC(=O)c3ccc(F)cc3)CCC1N2C (stereo not given) | 140 to 145 °C
48 | CCCCN1C(N)=NC(Oc2cccc(C)c2)=NS1(=O)=O | 169 to 171 °C
49 | CN1C(=O)CCC2(C)C3CCC4(C)C(Oc5ccc([N+](=O)[O-])cc5)CCC4C3CCC12 (stereo not given) | 183 to 184 °C
50 | Cc1cn(C2CC(O)C(COC(c3ccccc3)(c3ccccc3)c3ccccc3)O2)c(=O)[nH]c1=O (stereo not given) | 107 to 110 °C

Row | SMILES | melting point
51 | CCCCCCCCCCCCCCCCS[C@H]1CCCO[C@H]1CO (relative stereo) | 52 to 53 °C
52 | CC(C)(C)OC(=O)N1C[C@H](O)C[C@H]1C(=O)OC(c1ccccc1)c1ccccc1 | 93 to 95 °C
53 | CC(C)(C)OC(=O)N1CCN(CC(O)COc2ccc(CC#N)cc2)CC1 (stereo not given) | 98 to 100 °C
54 | C=CCN(c1nc(-c2cc3ccccc3[nH]c2=O)cs1)S(=O)(=O)c1ccccc1 | 214 to 216 °C
55 | Cn1c(-c2ccccc2F)nnc1S(C)(=O)=O | 128 to 130 °C
56 | COC(=O)[C@]1(C)CCc2c(C)c(OCc3ccccc3)c(C)c(C)c2O1 | 102 to 106 °C
57 | Cn1c(=O)c2c(ncn2CCCCCCl)n(C)c1=O | 78 to 80 °C
58 | Cc1cc(Cl)c2c(c1)C=C(/C=C/C=C/C=C/C(=O)O)CO2 | 248 to 250 °C
59 | c1cc(C2CCOCC2)ccn1 | 60 to 62 °C
60 | CCCn1nc2c(N)nc3c(c2c1CC(C)C)CCCC3 | 167 to 168 °C
61 | C=CCOC[C@H](NC(=O)[C@@H](NC(=O)[C@H](Cc1ccc(OCC=C)cc1)NC(=O)OC(C)(C)C)C(C)C)C(=O)OC | 109 to 111 °C
62 | CNC(=O)c1cc(-c2ccc(OC)c(Cl)c2)nn(CC2CC2)c1=O | 172 to 173 °C
63 | O=C(OCc1ccccc1)N1CCN(c2ccc(S(=O)(=O)N3CCCC3=O)cc2)CC1 | 153 to 155 °C
64 | O=c1nc(NCN2CCOCC2)c(F)cn1CN1CCOCC1 | 156 to 158 °C
65 | CCCC(=O)c1cnc2c(OCCCN(C)C)cccc2c1Nc1ccc(F)cc1C | 99 to 100 °C
66 | COC(NC(=O)c1ccccc1O)C(Cl)(Cl)Cl (stereo not given) | 117 to 118 °C
67 | Cc1ccc(O)cc1N=C(c1ccccc1)c1ccccc1 | 106 to 108 °C
68 | CCCC1CCC(C2CCC(C3CCCC(=O)C3)CC2)CC1 (stereo not given) | 1.5 °C
69 | Cc1cccc(NC(=O)NCC(=O)N(CC(=O)N(C)c2ccc(F)cc2F)c2ccccc2)c1 | 100 °C
70 | O=C(c1ccco1)C1C(=O)N(C(=O)Nc2ccc(F)cc2F)c2ccccc21 (stereo not given) | 191 to 192 °C
71 | Cc1ccc2[nH]c(=O)cc(CCN3CCN(c4cccc5ccccc45)CC3)c2c1 | 241 to 242 °C
72 | N#Cc1c(N2CCc3ccccc3CC2)[nH]c(=S)[nH]c1=O | > 200 °C
73 | O=C(O)COc1cccc2c1OCc1sc(SCC(c3ccccc3)c3ccccc3)nc1-2 | 182 to 184 °C
74 | O=C(O)c1cn(Cc2ccccc2)c2cc(N3CCNCC3)c(F)cc2c1=O | 250 to 253 °C
75 | O=C(Nc1ccc([N+](=O)[O-])cc1)N[C@H]1C[C@H](C(=O)O)Nc2cc(Cl)cc(Cl)c21 (relative stereo) | 185 to 186 °C

Row | SMILES | melting point
76 | CCn1c2ccccc2c2cc(C=C(C#N)c3ccc(C(F)(F)F)cc3)ccc21 | 164 to 165 °C
77 | CN1c2ccccc2CN(C(=O)c2ccc(-c3ccccc3)cc2)c2ccccc21 | 198 to 201 °C
78 | COc1ccc2[nH]c(=O)[nH]c2c1 | 249 to 251 °C
79 | OCc1cnc2sc3c(n12)CCCC3 | 182 to 183 °C
80 | CC1(C)OC(=O)C(OC2CCc3ccccc32)=C1c1ccc(S(C)(=O)=O)cc1 (stereo not given) | 128 to 129 °C
81 | O=C(O)c1cccc2[nH]nnc12 | 250 to 252 °C
82 | COC(=O)CCC(=O)c1ccc(-c2ccc(SC)cc2)cc1 | 137 to 140 °C
83 | CCCc1nc2c(N)nc3ccccc3c2n1CCC1(O)CCOCC1 | 181 to 183 °C
84 | O=C(O)c1cn(CCc2cccc(C(F)(F)F)c2)c2cc(C3CC3)nn2c1=O | 200 to 205 °C
85 | CC(C)(C)OC(=O)N1C2CCC1CN(Cc1ccccc1)C2 | 58 to 60 °C
86 | CCOCc1nc2c(N)nc3cccnc3c2n1Cc1cc(-c2ccc(F)cc2)no1 | 190 to 191 °C
87 | CNC(=S)NN=C(CCCNC(=O)c1ccccc1)c1ccccc1 | 114 to 118 °C
88 | N#CSc1cc(Cl)c(Cl)c2sc(NC(=O)Nc3ccc(Cl)cc3)nc12 | 238 to 239 °C
89 | COc1cc(NC(=O)Nc2ccccc2)cc(OC)n1 | 190 to 192 °C
90 | COC(=O)SN(C(=O)NC(=O)c1c(F)cccc1F)c1ccc(Oc2ccc(C(F)(F)F)cc2Cl)cc1 | 108 to 109 °C
91 | C=CCN1C2CCC3C1CCC2N3C(c1ccc(C(=O)N(CC)CC)cc1)c1cccc(O)c1 (stereo not given) | 147 to 150 °C
92 | CN(C)CCNc1ccc(NC(=O)Nc2ccc(Oc3ccccc3)cc2)cc1[N+](=O)[O-] | 178 to 180 °C
93 | C=C(C)C(=O)NCC(C)OC(=O)C(Br)(Br)Br (stereo not given) | 104 to 105 °C
94 | C=C(C)C(=O)N1CCC[C@H]1C(=O)O | 102 to 104 °C
95 | COC(=O)c1cn(C2=CC(C)(C)Oc3ccc(C#N)cc32)c2ccccc12 | 177 to 180 °C
96 | COc1ccc2cccc(N3C(=O)CN(CC#N)CC3=O)c2c1 | 204 °C
97 | O=C1c2ccccc2C(=O)N1OCc1c(Cl)cccc1Cl | 201 to 206 °C
98 | CCCCNC(=O)[C@@H](C[C@H](O)[C@H](CC1CCCCC1)NC(=O)OC(C)(C)C)C(C)(C)O | 91 to 93 °C
99 | Cc1ccc(-n2ncc(C(=O)O)n2)cc1 | 209 to 211 °C
100 | COc1cc2c(cc1Nc1ncc(Cl)c(Nc3ccccc3S(=O)(=O)C(C)C)n1)CCN(CC(=O)N1CCOCC1)CC2 | 100 °C
